{"source": "patent US4539208A", "about": "“Combination of thienamycin-type antibiotics with dipeptidase inhibitors” (Merck & Co., Inc., priority 1981, dated 1985)", "key": {"in vivo": {"experiment": "in vivo", "design": "species or system dog (male beagle)", "details": "dog, iv, 5 mg/kg", "description": "A male beagle was used for a study of the effect of dipeptidase inhibitors on the urinary recovery of N-formimidoyl thienamycin. In a control study, the dog was given 5 mg/kg IV of the N-formimidoyl thienamycin without inhibitor. A second experiment used the same amount of N-formimidoylthienamycin, but also administered Z-2-isovaleramido-2-butenoic acid in 3 doses, each providing 20 mg/kg of the compound. The first dose was administered just after injection of the N-formimidoylthienamycin, the second at 40 min. and the third at 60 min. […]"}, "[1]": {"experiment": "Urinary recovery of thienamycin co-administered with dipeptidase inhibitor in the mouse", "assay_type": "in vivo, mouse (Charles River CD, female)", "details": "urine, iv, Table II, control, thienamycin 10 mg/kg alone", "description": "In addition to this in vitro screen procedure, an in vivo screen was followed to measure the test compound's ability to inhibit metabolism as reflected by increase in urinary recovery of thienamycin from the mouse. The procedure involves co-administration of the test compound by the intravenous or subcutaneous route at a dose-rate of 10-100 mg/kg, with 10 mg/kg thienamycin. Thienamycin recovery in the urine over a 4 hour period is then compared with its recovery in a control group to which test compound was not co-administered.\nUrinary recovery of thienamycin was measured in all cases with the use of a cylinder or disc diffusion assay, conducted in a manner described in U.S. Pat. No. 3,950,357. This bioassay, with Staphylococcus aureus ATCC 6538 as the test organism, has a useful response range from 0.04 μg/ml to 3.0 μg/ml.\nAn in vivo assay on the mouse was conducted as follows: 20 g Charles River CD, female mice were injected subcutaneously with the chosen dose of the chemical inhibitor. About two minutes later, the dose of thienamycin was given intravenously. A control of thienamycin above was also conducted. The level of thienamycin in the urine as a % of dose was measured using a bioassay technique. The two test compound numbers are those from Table I. Compound 7 is Z-2-isovaleramido-2-butenoicacid; compound 10 is Z-2-cyclopropylcarboxamido-2-butenoic acid. […]"}, "Staphalococcus aureus": {"tested_on": "Staphalococcus aureus", "experiment": "Systemic efficacy of thienamycin with co-administered inhibitor, Staphylococcus aureus infection in mouse", "assay_type": "in vivo"}}, "data": [{"smiles": "C[C@@H](O)[C@H]1C(=O)N2C(C(=O)O)=C(SCCN=CN)C[C@H]12", "note": "[N-formimidoyl thienamycin, N-Formimidoyl thienamycin]", "values": [{"measurement": "dose excreted at 3 h", "setting": "in vivo", "value": 7.8, "unit": "%"}]}, {"smiles": "C[C@@H](O)[C@H]1C(=O)N2C(C(=O)O)=C(SCCN)C[C@H]12", "note": "[Thienamycin]", "values": [{"measurement": "dose excreted at 4 h", "setting": "[1]", "value": "25 to 30", "unit": "%"}, {"measurement": "ED50", "setting": "Staphalococcus aureus; THM +100 mg/kg inhibitor (Z-2-isovaleramido-2-butenoic acid)", "value": 0.06, "unit": "mg/kg"}, {"measurement": "ED50", "setting": "Staphalococcus aureus; THM alone", "value": 0.2, "unit": "mg/kg"}]}]}
